Reference: patent publication US12673944B2, “Compounds having inhibitory activity against glucosylceramide synthase or pharmaceutically acceptable salt thereof, processes for preparing the same, and pharmaceutical compositions comprising the same” (YUHAN CORPORATION, priority 2019, dated 2026)
Where two headings read alike, the source gives them in different places.

Tests used:
[1] = test system: GM1 production in Jurkat cells; assay: cells; assay type: cell-based
[2] = biological target: T1, glucosylceramide synthase (GCS) (Homo sapiens, UniProt Q16739); assay: GCS enzyme inhibition assay (A549 cell lysate, NBD C6-ceramide, HPLC fluorescence); assay type: biochemical; conditions: inhibitory activity against GCS, 37° C., 90 minutes
T1 construct: The obtained supernatant was used; host or cells: A549 cells (lysate supernatant after sonication)
T1 sequence (Q16739 1-394): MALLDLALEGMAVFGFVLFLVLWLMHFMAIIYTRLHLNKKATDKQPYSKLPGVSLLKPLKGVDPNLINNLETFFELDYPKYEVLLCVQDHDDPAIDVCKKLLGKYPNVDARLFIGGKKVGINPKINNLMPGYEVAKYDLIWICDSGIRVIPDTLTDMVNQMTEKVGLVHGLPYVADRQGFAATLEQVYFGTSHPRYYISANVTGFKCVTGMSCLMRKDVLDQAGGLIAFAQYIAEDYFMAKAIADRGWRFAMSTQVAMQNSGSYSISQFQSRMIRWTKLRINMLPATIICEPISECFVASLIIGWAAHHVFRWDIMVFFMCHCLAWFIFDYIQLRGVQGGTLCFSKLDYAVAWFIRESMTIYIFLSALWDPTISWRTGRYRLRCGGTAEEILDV
How it was run: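 A549 cell lysate (50 mM HEPES pH 7.3) served as GCS source; reactions ran 90 min at 37° C, were stopped with chloroform/methanol and lipids extracted. Activity taken as GlcCer/(Cer+GlcCer) peak area, normalised between DMSO and ibiglustat controls.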

Structure (SMILES) | IC50 ([1]; Homo sapiens, Jurkat, 72 h) [pM] | IC50 [2] [pM] | IC50 [1] [pM]
CC1(C)COc2cc(-c3cccc(S(=O)(=O)N4CCCC4)c3)ccc2C1NC(=O)O[C@@H]1CN2CCC1CC2 (stereo partly drawn) [Example 184, (S)-quinuclidin-3-yl (3,3-dimethyl-7-(3-(pyrrolidin-1-ylsulfonyl)phenyl)chroman-4-yl)carbamate] | 4160 | 910 | –
CC1(C)COc2cc(-c3ccccc3C(F)(F)F)ccc2C1NC(=O)O[C@@H]1CN2CCC1CC2 (stereo partly drawn) [Example 185, (S)-quinuclidin-3-yl (3,3-dimethyl-7-(2-(trifluoromethyl)phenyl)chroman-4-yl)carbamate] | 980 | 670 | –
CCOc1ccccc1-c1ccc2c(c1)OCC(C)(C)C2NC(=O)O[C@@H]1CN2CCC1CC2 (stereo partly drawn) [Example 186, (S)-quinuclidin-3-yl (7-(2-ethoxyphenyl)-3,3-dimethylchroman-4-yl)carbamate] | 2810 | 380 | –
CC1(C)COc2cc(-c3ccsc3)ccc2C1NC(=O)O[C@@H]1CN2CCC1CC2 (stereo partly drawn) [Example 187, (S)-quinuclidin-3-yl (3,3-dimethyl-7-(thiophen-3-yl)chroman-4-yl)carbamate] | 2060 | 320 | –
COc1ccc(-c2ccc3c(c2)OCC(C)(C)C3NC(=O)O[C@@H]2CN3CCC2CC3)cc1C(F)(F)F (stereo partly drawn) [Example 188, (S)-quinuclidin-3-yl (7-(4-methoxy-3-(trifluoromethyl)phenyl)-3,3-dimethylchroman-4-yl)carbamate] | – | 750 | 4590
CC1(C)COc2cc(-c3ccccc3C#N)ccc2C1NC(=O)O[C@@H]1CN2CCC1CC2 (stereo partly drawn) [Example 189, (S)-quinuclidin-3-yl (7-(2-cyanophenyl)-3,3-dimethylchroman-4-yl)carbamate] | 40 | 360 | –
CC1(C)COc2cc(-c3ccc4c(c3)OCCCO4)ccc2C1NC(=O)O[C@@H]1CN2CCC1CC2 (stereo partly drawn) [Example 190, (S)-quinuclidin-3-yl (7-(3,4-dihydro-2H-benzo[b][1,4]dioxepin-7-yl)-3,3-dimethylchroman-4-yl)carbamate] | 30 | 290 | –
CC1(C)COc2cc(-c3ccc4nsnc4c3)ccc2C1NC(=O)O[C@@H]1CN2CCC1CC2 (stereo partly drawn) [Example 191, (S)-quinuclidin-3-yl (7-(benzo[c][1,2,5]thiadiazol-5-yl)-3,3-dimethylchroman-4-yl)carbamate] | 310 | 630 | –
CC1(C)COc2cc(-c3cncc4ccccc34)ccc2C1NC(=O)O[C@@H]1CN2CCC1CC2 (stereo partly drawn) [Example 192, (S)-quinuclidin-3-yl (7-(isoquinolin-4-yl)-3,3-dimethylchroman-4-yl)carbamate] | – | 920 | 1350
CC(C)(C)c1ccc(-c2ccc3c(c2)OCC(C)(C)C3NC(=O)O[C@@H]2CN3CCC2CC3)cc1 (stereo partly drawn) [Example 193, (S)-quinuclidin-3-yl (7-(4-(tert-butyl)phenyl)-3,3-dimethylchroman-4-yl)carbamate] | 460 | 510 | –
Cc1cc(-c2ccc3c(c2)OCC(C)(C)C3NC(=O)O[C@@H]2CN3CCC2CC3)ccc1N1CCOCC1 (stereo partly drawn) [Example 194, (S)-quinuclidin-3-yl (3,3-dimethyl-7-(3-methyl-4-morpholinophenyl)chroman-4-yl)carbamate] | 1810 | 600 | –
CC1(C)COc2cc(-c3ccc(Cl)c(Cl)c3)ccc2C1NC(=O)O[C@@H]1CN2CCC1CC2 (stereo partly drawn) [Example 195, (S)-quinuclidin-3-yl (7-(3,4-dichlorophenyl)-3,3-dimethylchroman-4-yl)carbamate] | 1390 | 1140 | –
Cn1ncc2ccc(-c3ccc4c(c3)OCC(C)(C)C4NC(=O)O[C@@H]3CN4CCC3CC4)cc21 (stereo partly drawn) [Example 196, (S)-quinuclidin-3-yl (3,3-dimethyl-7-(1-methyl-1H-indazol-6-yl)chroman-4-yl)carbamate] | 6130 | 1250 | –
CC1(C)COc2cc(-c3ccc4cc[nH]c4c3)ccc2C1NC(=O)O[C@@H]1CN2CCC1CC2 (stereo partly drawn) [Example 197, (S)-quinuclidin-3-yl (7-(1H-indol-6-yl)-3,3-dimethylchroman-4-yl)carbamate] | 1990 | 900 | –
CN1CCOc2cc(-c3ccc4c(c3)OCC(C)(C)C4NC(=O)O[C@@H]3CN4CCC3CC4)ccc21 (stereo partly drawn) [Example 198, (S)-quinuclidin-3-yl (3,3-dimethyl-7-(4-methyl-3,4-dihydro-2H-benzo[b][1,4]oxazin-7-yl)chroman-4-yl)carbamate] | 1830 | 660 | –
Cc1ccc(-c2ccc3c(c2)OCC(C)(C)C3NC(=O)O[C@@H]2CN3CCC2CC3)cc1C#N (stereo partly drawn) [Example 199, (S)-quinuclidin-3-yl (7-(3-cyano-4-methylphenyl)-3,3-dimethylchroman-4-yl)carbamate] | 3630 | 510 | –

Structure (SMILES) | IC50 ([1]; Homo sapiens, Jurkat, 72 h) [pM] | IC50 [2] [pM] | IC50 [1] [pM]
CC1(C)COc2cc(-c3cc(F)c(F)cc3F)ccc2C1NC(=O)O[C@@H]1CN2CCC1CC2 (stereo partly drawn) [Example 200, (S)-quinuclidin-3-yl (3,3-dimethyl-7-(2,4,5-trifluorophenyl)chroman-4-yl)carbamate] | 1940 | 490 | –
CC1(C)COc2cc(-c3ccc(OC(F)(F)F)cc3)ccc2C1NC(=O)O[C@@H]1CN2CCC1CC2 (stereo partly drawn) [Example 201, (S)-quinuclidin-3-yl (3,3-dimethyl-7-(4-(trifluoromethoxy)phenyl)chroman-4-yl)carbamate] | 1120 | 410 | –
CC1(C)COc2cc(-c3ccc(C4CCOCC4)cc3)ccc2C1NC(=O)O[C@@H]1CN2CCC1CC2 (stereo partly drawn) [Example 202, (S)-quinuclidin-3-yl (3,3-dimethyl-7-(4-(tetrahydro-2H-pyran-4-yl)phenyl)chroman-4-yl)carbamate] | 470 | 280 | –
COc1cc(-c2ccc3c(c2)OCC(C)(C)C3NC(=O)O[C@@H]2CN3CCC2CC3)ccn1 (stereo partly drawn) [Example 203, (S)-quinuclidin-3-yl (7-(2-methoxypyridin-4-yl)-3,3-dimethylchroman-4-yl)carbamate] | 8030 | 720 | –
CC1(C)COc2cc(-c3ccc(N4CCOCC4)c(Cl)c3)ccc2C1NC(=O)O[C@@H]1CN2CCC1CC2 (stereo partly drawn) [Example 205, (S)-quinuclidin-3-yl (7-(3-chloro-4-morpholinophenyl)-3,3-dimethylchroman-4-yl)carbamate] | 250 | 650 | –
COc1ccc(-c2ccc3c(c2)OCC(C)(C)C3NC(=O)O[C@@H]2CN3CCC2CC3)cc1 (stereo partly drawn) [Example 206, (S)-quinuclidin-3-yl (7-(4-methoxyphenyl)-3,3-dimethylchroman-4-yl)carbamate] | 10 | 500 | –
COc1cncc(-c2ccc3c(c2)OCC(C)(C)C3NC(=O)O[C@@H]2CN3CCC2CC3)c1 (stereo partly drawn) [Example 207, (S)-quinuclidin-3-yl (7-(5-methoxypyridin-3-yl)-3,3-dimethylchroman-4-yl)carbamate] | 1060 | 1120 | –
CC1(C)COc2cc(-c3cc4ccccc4s3)ccc2C1NC(=O)O[C@@H]1CN2CCC1CC2 (stereo partly drawn) [Example 208, (S)-quinuclidin-3-yl (7-(benzo[b]thiophen-2-yl)-3,3-dimethylchroman-4-yl)carbamate] | 2470 | 1410 | –
CCOc1ccc(-c2ccc3c(c2)OCC(C)(C)C3NC(=O)O[C@@H]2CN3CCC2CC3)cc1 (stereo partly drawn) [Example 209, (S)-quinuclidin-3-yl (7-(4-ethoxyphenyl)-3,3-dimethylchroman-4-yl)carbamate] | 10 | 340 | –
COc1ccc(-c2ccc3c(c2)OCC(C)(C)C3NC(=O)O[C@@H]2CN3CCC2CC3)cc1C(F)(F)F (stereo partly drawn) [Example 210, (S)-quinuclidin-3-yl (7-(4-methoxy-3-(trifluoromethyl)phenyl)-3,3-dimethylchroman-4-yl)carbamate] | – | 1570 | 18000
CC1(C)COc2cc(-c3ccc(C(F)(F)F)cc3)ccc2C1NC(=O)O[C@@H]1CN2CCC1CC2 (stereo partly drawn) [Example 211, (S)-quinuclidin-3-yl (3,3-dimethyl-7-(4-(trifluoromethyl)phenyl)chroman-4-yl)carbamate] | 1410 | 710 | –
CC1(C)COc2cc(-c3cccc4[nH]ncc34)ccc2C1NC(=O)O[C@@H]1CN2CCC1CC2 (stereo partly drawn) [Example 212, (S)-quinuclidin-3-yl (7-(1H-indazol-4-yl)-3,3-dimethylchroman-4-yl)carbamate] | 2450 | 870 | –
CC1(C)COc2cc(-c3ccc(Cl)cc3)ccc2C1NC(=O)O[C@@H]1CN2CCC1CC2 (stereo partly drawn) [Example 213, (S)-quinuclidin-3-yl (7-(4-chlorophenyl)-3,3-dimethylchroman-4-yl)carbamate] | 30 | 780 | –
CC1(C)COc2cc(-c3ccc(F)cc3)ccc2C1NC(=O)O[C@@H]1CN2CCC1CC2 (stereo partly drawn) [Example 214, (S)-quinuclidin-3-yl (7-(4-fluorophenyl)-3,3-dimethylchroman-4-yl)carbamate] | 1810 | 550 | –
COc1ncc(-c2ccc3c(c2)OCC(C)(C)C3NC(=O)O[C@@H]2CN3CCC2CC3)cc1Cl (stereo partly drawn) [Example 215, (S)-quinuclidin-3-yl (7-(5-chloro-6-methoxypyridin-3-yl)-3,3-dimethylchroman-4-yl)carbamate] | 2510 | 1570 | –
